Reference: the NIST ThermoML archive (doi:10.1016/j.jct.2008.06.017)

Experiments:
[1] = Liquid, Vibrating tube method
[2] = xn = mol fraction of the nth substance listed; conditions: Liquid, Vibrating tube method

C=Cc1ccccc1 [styrene]
[1]
Conditions	mass density [kg/m3]
293.15 K	906.26
303.15 K	897.392
313.15 K	888.472

C=COC(C)=O [vinyl acetate]
[1]
Conditions	mass density [kg/m3]
293.15 K	931.95
303.15 K	919.089
313.15 K	906.116

COC(=O)OC [dimethyl carbonate] + C=Cc1ccccc1
[2], x1 = 1
Conditions	mass density [kg/m3]
293.15 K	1069.79
303.15 K	1056.75
313.15 K	1043.37

C=CCOC(=O)C(=C)C [2-propenyl 2-methylpropenoate] + COC(=O)OC
[2]
Conditions	mass density [kg/m3]
293.15 K, x2 = 0	932.965
293.15 K, x2 = 0.0254	935.07
293.15 K, x2 = 0.0498	937.164
293.15 K, x2 = 0.1006	941.619
293.15 K, x2 = 0.1507	946.22
293.15 K, x2 = 0.2	950.913
293.15 K, x2 = 0.2505	955.966
293.15 K, x2 = 0.2999	961.134
293.15 K, x2 = 0.3499	966.623
293.15 K, x2 = 0.4005	972.4
293.15 K, x2 = 0.449	978.208
293.15 K, x2 = 0.5	984.616
293.15 K, x2 = 0.5499	991.215
293.15 K, x2 = 0.5991	998.042
293.15 K, x2 = 0.6502	1005.49
293.15 K, x2 = 0.7	1013.17
293.15 K, x2 = 0.7502	1021.34
293.15 K, x2 = 0.8001	1029.9
293.15 K, x2 = 0.8499	1039
293.15 K, x2 = 0.9002	1048.71
293.15 K, x2 = 0.9499	1058.87
293.15 K, x2 = 0.975	1064.27
303.15 K, x2 = 0	922.525
303.15 K, x2 = 0.0253	924.591
303.15 K, x2 = 0.0501	926.656
303.15 K, x2 = 0.101	931.041
303.15 K, x2 = 0.15	935.458
303.15 K, x2 = 0.1999	940.145
303.15 K, x2 = 0.2505	945.101
303.15 K, x2 = 0.2999	950.165
303.15 K, x2 = 0.3499	955.527
303.15 K, x2 = 0.4003	961.195
303.15 K, x2 = 0.447	966.662
303.15 K, x2 = 0.5001	973.205
303.15 K, x2 = 0.5501	979.68
303.15 K, x2 = 0.5994	986.387
303.15 K, x2 = 0.6502	993.661
303.15 K, x2 = 0.7001	1001.19
303.15 K, x2 = 0.7503	1009.19
303.15 K, x2 = 0.8001	1017.58
303.15 K, x2 = 0.8499	1026.47
303.15 K, x2 = 0.9002	1035.99
303.15 K, x2 = 0.9499	1046
303.15 K, x2 = 0.975	1051.3
313.15 K, x2 = 0	912.072
313.15 K, x2 = 0.0247	914.028
313.15 K, x2 = 0.0499	916.075
313.15 K, x2 = 0.1002	920.29
313.15 K, x2 = 0.1496	924.626
313.15 K, x2 = 0.1997	929.2
313.15 K, x2 = 0.2495	933.94
313.15 K, x2 = 0.2999	938.979
313.15 K, x2 = 0.3502	944.239
313.15 K, x2 = 0.3999	949.688
313.15 K, x2 = 0.4499	955.431
313.15 K, x2 = 0.4997	961.436
313.15 K, x2 = 0.5503	967.862
313.15 K, x2 = 0.6001	974.504
313.15 K, x2 = 0.6497	981.462
313.15 K, x2 = 0.7001	988.916
313.15 K, x2 = 0.7498	996.664
313.15 K, x2 = 0.7998	1004.93
313.15 K, x2 = 0.85	1013.71
313.15 K, x2 = 0.8998	1023
313.15 K, x2 = 0.9498	1032.83
313.15 K, x2 = 0.9746	1037.94

COC(=O)OC [dimethyl carbonate]
[1]
Conditions	mass density [kg/m3]
293.15 K	1069.79
303.15 K	1056.75
313.15 K	1043.37
